Measurements from article PMC3914206.

Experiments:
panel of 442 kinases [1] = molecular target: T1, panel of 442 kinases (Homo sapiens, UniProt Q96L34); format: binding; parameters: KINOMEscan: ABL1(F317L)-phosphorylated / KINOMEscan: ABL1(H396P)-nonphosphorylated / KINOMEscan: ABL1(H396P)-phosphorylated / KINOMEscan: ABL1(M351T)-phosphorylated / KINOMEscan: ABL1(T315I)-phosphorylated / KINOMEscan: ABL1-nonphosphorylated / KINOMEscan: ABL1-phosphorylated / KINOMEscan: ACVR2A / KINOMEscan: ACVR2B / KINOMEscan: ADCK3 / KINOMEscan: ADCK4 / KINOMEscan: AKT1 / KINOMEscan: AKT3 / KINOMEscan: ALK / KINOMEscan: ARK5 / KINOMEscan: AURKA / KINOMEscan: AURKC / KINOMEscan: BIKE / KINOMEscan: BMPR1A / KINOMEscan: BMPR1B / KINOMEscan: BMX / KINOMEscan: BRK / KINOMEscan: BRSK1 / KINOMEscan: BRSK2 / KINOMEscan: CAMK1 / KINOMEscan: CAMK1D / KINOMEscan: CAMK1G / KINOMEscan: CAMK2A / KINOMEscan: CAMK2B / KINOMEscan: AAK1 / KINOMEscan: CAMK2D / KINOMEscan: CAMK2G / KINOMEscan: ABL1(F317I)-nonphosphorylated / KINOMEscan: ABL1(F317I)-phosphorylated / KINOMEscan: ABL1(F317L)-nonphosphorylated: unit: % Ctrl; conditions: Compound Concentration 10 µM
T1 construct: purchased KINOMEscan
T1 sequence (Q96L34 1-752): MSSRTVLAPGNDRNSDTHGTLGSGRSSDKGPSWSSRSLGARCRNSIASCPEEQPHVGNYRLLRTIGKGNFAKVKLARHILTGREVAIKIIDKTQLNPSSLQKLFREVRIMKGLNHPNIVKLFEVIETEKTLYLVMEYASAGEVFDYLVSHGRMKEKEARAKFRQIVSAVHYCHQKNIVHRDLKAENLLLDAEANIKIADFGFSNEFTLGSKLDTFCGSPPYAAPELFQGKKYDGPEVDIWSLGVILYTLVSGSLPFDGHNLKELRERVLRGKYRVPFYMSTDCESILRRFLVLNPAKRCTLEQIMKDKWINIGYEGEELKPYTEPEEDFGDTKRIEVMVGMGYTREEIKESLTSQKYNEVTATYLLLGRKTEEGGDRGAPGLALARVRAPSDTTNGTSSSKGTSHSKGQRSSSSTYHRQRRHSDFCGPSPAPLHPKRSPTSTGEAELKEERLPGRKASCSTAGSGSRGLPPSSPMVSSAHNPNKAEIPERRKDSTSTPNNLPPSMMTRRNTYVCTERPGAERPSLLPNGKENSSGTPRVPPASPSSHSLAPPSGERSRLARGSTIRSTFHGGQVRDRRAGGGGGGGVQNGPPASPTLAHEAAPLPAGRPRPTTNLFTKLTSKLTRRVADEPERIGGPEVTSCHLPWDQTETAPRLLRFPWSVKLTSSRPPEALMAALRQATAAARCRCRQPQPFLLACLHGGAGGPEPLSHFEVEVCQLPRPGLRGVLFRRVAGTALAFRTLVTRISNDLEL
Excerpt: (§1) We assessed the selectivity of members of this scaffold using the KINOMEscan methodology across a near comprehensive panel of 442 kinases [[18,27]].

panel of 442 kinases [2] = molecular target: T2, panel of 442 kinases (Homo sapiens, UniProt P27037); format: binding; parameters: KINOMEscan: ABL1(F317L)-phosphorylated / KINOMEscan: ABL1(H396P)-nonphosphorylated / KINOMEscan: ABL1(H396P)-phosphorylated / KINOMEscan: ABL1(M351T)-phosphorylated / KINOMEscan: ABL1(T315I)-phosphorylated / KINOMEscan: ABL1-nonphosphorylated / KINOMEscan: ABL1-phosphorylated / KINOMEscan: ACVR2A / KINOMEscan: ACVR2B / KINOMEscan: ADCK3 / KINOMEscan: ADCK4 / KINOMEscan: AKT1 / KINOMEscan: AKT3 / KINOMEscan: ALK / KINOMEscan: ARK5 / KINOMEscan: AURKA / KINOMEscan: AURKC / KINOMEscan: BIKE / KINOMEscan: BMPR1A / KINOMEscan: BMPR1B / KINOMEscan: BMX / KINOMEscan: BRK / KINOMEscan: BRSK1 / KINOMEscan: BRSK2 / KINOMEscan: CAMK1 / KINOMEscan: CAMK1D / KINOMEscan: CAMK1G / KINOMEscan: CAMK2A / KINOMEscan: CAMK2B / KINOMEscan: AAK1 / KINOMEscan: CAMK2D / KINOMEscan: CAMK2G / KINOMEscan: ABL1(F317I)-nonphosphorylated / KINOMEscan: ABL1(F317I)-phosphorylated / KINOMEscan: ABL1(F317L)-nonphosphorylated: unit: % Ctrl; conditions: Compound Concentration 10 µM
T2 construct: purchased KINOMEscan
T2 sequence (P27037 20-513): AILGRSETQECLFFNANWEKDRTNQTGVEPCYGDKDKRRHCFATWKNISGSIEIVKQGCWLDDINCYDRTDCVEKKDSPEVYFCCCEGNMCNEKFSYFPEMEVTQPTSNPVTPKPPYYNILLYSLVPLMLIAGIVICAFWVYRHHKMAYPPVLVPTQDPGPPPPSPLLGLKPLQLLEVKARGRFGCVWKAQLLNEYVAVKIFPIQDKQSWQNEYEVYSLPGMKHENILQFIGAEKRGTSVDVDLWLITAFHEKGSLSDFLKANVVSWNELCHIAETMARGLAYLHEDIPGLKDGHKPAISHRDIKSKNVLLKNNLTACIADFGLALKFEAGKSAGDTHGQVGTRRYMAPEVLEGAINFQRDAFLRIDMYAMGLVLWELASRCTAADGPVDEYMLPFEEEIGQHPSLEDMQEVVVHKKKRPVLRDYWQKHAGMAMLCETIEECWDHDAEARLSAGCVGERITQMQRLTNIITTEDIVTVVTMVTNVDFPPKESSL
Excerpt: as §1

Structure (SMILES) | KINOMEscan: MARK4 (panel of 442 kinases [1]) | KINOMEscan: ACVR2A (panel of 442 kinases [2])
CCOc1cc(C(=O)N2CCC(N3CCN(C)CC3)CC2)ccc1Nc1ncc2c(n1)N(C1CCCC1)c1ccccc1C(=O)N2C [Compound 26] | 100 | 95
COc1cc(C(=O)N2CCC(N3CCN(C)CC3)CC2)ccc1Nc1ncc2c(n1)N(C1CCCC1)c1ccccc1C(=O)N2C [Compound 25, 11-cyclopentyl-2-((2-methoxy-4-(4-(4-methylpiperazin-1-yl)piperidine-1-carbonyl)phenyl)amino)-5-methyl-5H-benzo[e]pyrimido[5,4-b][1,4]diazepin-6(11H)-one] | 100 | 93
COc1cc(C(=O)N2CCC(N3CCN(C)CC3)CC2)ccc1Nc1ncc2c(n1)N1CCc3cccc(c31)C(=O)N2C [Compound 24] | 87 | 71
COc1cc(C(=O)N2CCC(N3CCN(C)CC3)CC2)ccc1Nc1ncc2c(n1)N(C)c1ccccc1C(=O)N2C [15 (LRRK2-IN-1)] | 78 | 100
